pIC50: −log10 of the molar value. Entries after “also recorded” stand apart in the source; their conditions may differ.
Columns and labels:
[1] = test system: AML blast freshly derived from bone marrow of AML patients; assay: Ex vivo proliferation of AML blast freshly derived from bone marrow; type: cell-based; conditions: Homo sapiens; 5 bone marrow samples from AML patients; flow cytometry at 96 h; single agent; read-out: median IC50, live AML cells
Experimental: (A-B), 5 bone marrow samples derived from AML patients were treated with increasing concentrations of azacitidine, Compound A and Compound J and live AML cells were quantified by flow cytometry at 96 h. IC50 values (A) and AUC values (B) were plotted. […] The relative potency of the three drugs are Compound J>azacitidine>Compound A, consistent with the result in FIG. 2. (C) 5 bone marrow samples derived from AML patients were treated with increasing doses of azacitidine with Compound J and live AML cells were quantified by flow cytometry at 96 h. The combination index (Comb IDX) were calculated and median Comb IDX values were plotted.

[2] = test system: bone marrow samples derived from AML patients; assay: Primary AML sample colony formation assay; type: cell-based; conditions: Homo sapiens, 336 h, read-out: median IC50, colony formation
Experimental: (A) 6 bone marrow samples derived from AML patients were cultured in methylcellulose-based medium and treated with increasing concentrations of Compound A, Compound J and azacitidine for 14 days when the colonies reach reasonable size. IC50 values for each drug are plotted. […] IC50 values were plotted for each patient sample.

[3] = Phase I trials; cited from earlier work
HDAC6 = target: T1, HDAC6 (Homo sapiens, UniProt Q9UBN7); assay: HDAC enzyme assays (selectivity for HDAC6); type: biochemical
T1 sequence (Q9UBN7 1-1215): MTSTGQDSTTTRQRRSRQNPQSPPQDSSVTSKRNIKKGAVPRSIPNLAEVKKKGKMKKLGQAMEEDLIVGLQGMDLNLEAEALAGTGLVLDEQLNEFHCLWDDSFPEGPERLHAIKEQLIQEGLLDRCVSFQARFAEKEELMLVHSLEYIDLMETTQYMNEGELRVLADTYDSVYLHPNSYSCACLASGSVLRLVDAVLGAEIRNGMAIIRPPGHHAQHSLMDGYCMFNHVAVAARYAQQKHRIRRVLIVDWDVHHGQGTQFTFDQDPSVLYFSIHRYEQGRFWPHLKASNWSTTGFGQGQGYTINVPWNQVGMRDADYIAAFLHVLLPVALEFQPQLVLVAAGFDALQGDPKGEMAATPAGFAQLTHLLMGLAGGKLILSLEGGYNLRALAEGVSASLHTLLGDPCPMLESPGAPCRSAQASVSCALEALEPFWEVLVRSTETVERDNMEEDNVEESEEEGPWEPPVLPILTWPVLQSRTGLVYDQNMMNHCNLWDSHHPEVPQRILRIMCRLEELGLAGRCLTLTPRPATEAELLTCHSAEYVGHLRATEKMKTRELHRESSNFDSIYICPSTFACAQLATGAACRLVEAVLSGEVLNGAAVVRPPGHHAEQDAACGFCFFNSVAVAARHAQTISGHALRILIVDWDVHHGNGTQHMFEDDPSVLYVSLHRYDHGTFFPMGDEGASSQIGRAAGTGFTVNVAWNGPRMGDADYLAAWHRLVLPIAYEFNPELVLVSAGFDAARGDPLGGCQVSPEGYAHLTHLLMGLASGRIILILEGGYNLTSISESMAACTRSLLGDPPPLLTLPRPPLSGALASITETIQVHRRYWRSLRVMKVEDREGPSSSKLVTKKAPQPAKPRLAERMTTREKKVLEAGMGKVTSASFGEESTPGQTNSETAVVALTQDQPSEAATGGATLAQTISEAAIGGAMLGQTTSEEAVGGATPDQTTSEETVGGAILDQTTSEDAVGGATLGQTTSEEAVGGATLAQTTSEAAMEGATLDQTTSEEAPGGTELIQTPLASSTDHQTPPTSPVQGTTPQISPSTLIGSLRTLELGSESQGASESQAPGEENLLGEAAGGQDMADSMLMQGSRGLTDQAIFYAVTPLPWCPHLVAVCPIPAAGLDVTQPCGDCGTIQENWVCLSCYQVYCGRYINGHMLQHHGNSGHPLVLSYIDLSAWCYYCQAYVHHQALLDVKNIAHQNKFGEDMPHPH
Experimental: Compounds for testing are diluted in DMSO to 50 fold the final concentration and a ten point three fold dilution series is made. The compounds are diluted in assay buffer (50 mM HEPES, pH 7.4, 100 mM Kill, 0.001% Tween-20, 0.05% BASE, 20 μM TEC) to 6 fold their final concentration. The HDAC enzymes (purchased from BPS Biosciences) are diluted to 1.5 fold their final concentration in assay buffer. The dipeptide substrate and trypsin at 0.05 μM final concentration are diluted in assay buffer at 6 fold their final concentration. The final enzyme concentrations to use in these assays are 3.3 ng/ml (HDAC1), 0.2 ng/ml (HDAC2), 0.08 ng/ml (HDAC3) and 2 ng/ml (HDAC6). The final substrate concentrations to use are 16 μM (HDAC1), 10 μM (HDAC2), 17 μM (HDAC3) and 14 μM (HDAC6). Five μ1 of compound and 20 μl of enzyme are added to wells of a black, opaque 384 well plate in duplicate. Enzyme and compound are incubated together at room temperature for 10 min. Five μ1 of substrate is added to each well, the plate is shaken for 60 seconds and placed into a Victor 2 microliter plate reader. The development of fluorescence is monitored for 60 min. and the linear rate of the reaction is calculated. The IC50 is determined using Graph Pad Prism by a four parameter curve fit.

HL-60 cells = assay: HL-60 cell viability, combination with azacitidine (cell titer glo, CalcuSyn CI); type: cell-based; conditions: 72 hr, CI less than 1 = synergistic
Experimental: HL-60 cells were treated with increasing doses of azacitidine with Compound E (FIG. 11A) or with Compound A (FIG. 11B) or with Compound H (FIG. 11C) or with Compound C (FIG. 11D), and cell viability was assessed at 72 hr by cell titer glo assay. The combination index (CI) and relative fraction affected (Fa) was determined at each dose level using CalcuSyn software. […] Significant enhancement of azacitidine activity is observed in combination with HDAC1/2 inhibition.

GATA2 = GATA2 expression in MV4-11 AML cell line; type: cell-based; conditions: 48 h and 72 h
Experimental: FIG. 16. […] (A-B) MV4-11 cells were plated at 2×10^5 cells/ml at indicated doses for 48 h and 72 h. RNA was prepared and analyzed for GATA2 and GAPDH as internal control.

## O=C(CCCCCCNC(=O)c1cnc(N(c2ccccc2)c2ccccc2)nc1)NO [Compound A, 2-(diphenylamino)-N-(7-(hydroxyamino)-7-oxoheptyl)pyrimidine-5-carboxamide]
[1]
  pIC50: 5.14
[2]
  pIC50: 5.01
[3]
  safety and tolerability: improved safety and tolerability profile

## O=C(CCCCCCNC(=O)c1cnc(N(c2ccccc2)c2ccccc2Cl)nc1)NO [Compound B, 2-((2-chlorophenyl)(phenyl)amino)-N-(7-(hydroxyamino)-7-oxoheptyl)pyrimidine-5-carboxamide]
HDAC6
  selective for HDAC6: about 10 times

## Nc1ccc(-c2cccs2)cc1NC(=O)c1ccc2c(c1)cc(C1CC1)n2CCN1CCOCC1 [Compound E, N-(2-amino-5-(thiophen-2-yl)phenyl)-2-cyclopropyl-1-(2-morpholinoethyl)-1H-indole-5-carboxamide]
HL-60 cells
  synergistic interaction with azacitidine on cell viability (CI): strongest synergistic interaction
GATA2; combination of azacitidine and Compound E
  GATA2 expression: further induced GATA2 expression; also recorded: synergistically induce GATA2 expression
GATA2; single agent at 1 uM
  GATA2 level: induced GATA2 level

— patent US9833466B2, “Treatment of leukemia with histone deacetylase inhibitors” (Acetylon Pharmaceuticals Inc., priority 2014, dated 2017)
